According to ChEMBL document CHEMBL4138123, “Design, synthesis and biological evaluation of novel pyrazolochalcones as potential modulators of PI3K/Akt/mTOR pathway and inducers of apoptosis in breast cancer cells” (Eur J Med Chem, 2017):

Experiments:
Assay type in all cases: functional
[1] = system: SR; experiment: Cytotoxicity against human SR cells assessed as cell growth at 0.01 uM after 48 hrs by sulforhodamine B assay relative to control; settings: read-out: Activity
[2] = system: SK-OV-3; experiment: Cytotoxicity against human SKOV3 cells assessed as cell growth at 100 uM after 48 hrs by sulforhodamine B assay relative to control; settings: SK-OV-3, 48 h, read-out: Activity
[3] = system: COLO 205; experiment: Cytotoxicity against human COLO205 cells assessed as cell growth at 0.1 uM after 48 hrs by sulforhodamine B assay relative to control; settings: COLO 205, 48 h, read-out: Activity
[4] = system: HT-29; experiment: Cytotoxicity against human HT-29 cells assessed as cell growth at 10 uM after 48 hrs by sulforhodamine B assay relative to control; settings: HT-29, 48 h, read-out: Activity
[5] = system: UO-31; experiment: Cytotoxicity against human UO31 cells assessed as cell growth at 1 uM after 48 hrs by sulforhodamine B assay relative to control; settings: UO-31, 48 h, read-out: Activity
[6] = system: UACC-62; experiment: Cytotoxicity against human UACC62 cells assessed as cell growth at 1 uM after 48 hrs by sulforhodamine B assay relative to control; settings: UACC-62, 48 h, read-out: Activity
[7] = system: SN12C; experiment: Cytotoxicity against human SN12C cells assessed as cell growth at 10 uM after 48 hrs by sulforhodamine B assay relative to control; settings: read-out: Activity
[8] = system: MDA-MB-435; experiment: Cytotoxicity against human MDA-MB-435 cells assessed as cell growth at 10 uM after 48 hrs by sulforhodamine B assay relative to control; settings: MDA-MB-435, 48 h, read-out: Activity
[9] = system: OVCAR-4; experiment: Cytotoxicity against human OVCAR4 cells assessed as cell growth at 1 uM after 48 hrs by sulforhodamine B assay relative to control; settings: OVCAR-4, 48 h, read-out: Activity
[10] = system: NCI-H23; experiment: Cytotoxicity against human NCI-H23 cells assessed as cell growth at 10 uM after 48 hrs by sulforhodamine B assay relative to control; settings: NCI-H23, 48 h, read-out: Activity
[11] = system: OVCAR-3; experiment: Cytotoxicity against human OVCAR3 cells assessed as cell growth at 100 uM after 48 hrs by sulforhodamine B assay relative to control; settings: OVCAR-3, 48 h, read-out: Activity
[12] = system: OVCAR-8; experiment: Cytotoxicity against human OVCAR8 cells assessed as cell growth at 0.01 uM after 48 hrs by sulforhodamine B assay relative to control; settings: OVCAR-8, 48 h, read-out: Activity
[13] = system: MDA-MB-231; experiment: Cytotoxicity against human MDA-MB-231 cells assessed as cell growth at 0.1 uM after 48 hrs by sulforhodamine B assay relative to control; settings: MDA-MB-231, 48 h, read-out: Activity
[14] = system: UACC-62; experiment: Cytotoxicity against human UACC62 cells assessed as cell growth at 10 uM after 48 hrs by sulforhodamine B assay relative to control; settings: UACC-62, 48 h, read-out: Activity
[15] = system: OVCAR-3; experiment: Cytotoxicity against human OVCAR3 cells assessed as growth inhibition after 48 hrs by sulforhodamine B assay; settings: OVCAR-3, 48 h
[16] = system: SNB-19; experiment: Cytotoxicity against human SNB19 cells assessed as cell growth at 0.1 uM after 48 hrs by sulforhodamine B assay relative to control; settings: SNB-19, 48 h, read-out: Activity
[17] = system: K562; experiment: Cytotoxicity against human K562 cells assessed as growth inhibition after 48 hrs by sulforhodamine B assay; settings: K562, 48 h
[18] = system: Hs-578T; experiment: Cytotoxicity against human Hs 578T cells assessed as cell growth at 0.01 uM after 48 hrs by sulforhodamine B assay relative to control; settings: read-out: Activity
[19] = system: HCC 2998; experiment: Cytotoxicity against human HCC2998 cells assessed as cell growth at 100 uM after 48 hrs by sulforhodamine B assay relative to control; settings: HCC 2998, 48 h, read-out: Activity
[20] = system: BT-549; experiment: Cytotoxicity against human BT549 cells assessed as cell growth at 100 uM after 48 hrs by sulforhodamine B assay relative to control; settings: BT-549, 48 h, read-out: Activity
[21] = system: Hs-578T; experiment: Cytotoxicity against human Hs 578T cells assessed as growth inhibition after 48 hrs by sulforhodamine B assay
[22] = system: TK-10; experiment: Cytotoxicity against human TK10 cells assessed as cell growth at 1 uM after 48 hrs by sulforhodamine B assay relative to control; settings: TK-10, 48 h, read-out: Activity
[23] = system: OVCAR-4; experiment: Cytotoxicity against human OVCAR4 cells assessed as cell growth at 0.1 uM after 48 hrs by sulforhodamine B assay relative to control; settings: OVCAR-4, 48 h, read-out: Activity
[24] = system: NCI-H460; experiment: Cytotoxicity against human NCI-H460 cells assessed as cell growth at 10 uM after 48 hrs by sulforhodamine B assay relative to control; settings: NCI-H460, 48 h, read-out: Activity
[25] = system: M14; experiment: Cytotoxicity against human M14 cells assessed as cell growth at 10 uM after 48 hrs by sulforhodamine B assay relative to control; settings: M14, 48 h, read-out: Activity
[26] = system: SK-OV-3; experiment: Cytotoxicity against human SKOV3 cells assessed as cell growth at 0.01 uM after 48 hrs by sulforhodamine B assay relative to control; settings: SK-OV-3, 48 h, read-out: Activity
[27] = system: OVCAR-8; experiment: Cytotoxicity against human OVCAR8 cells assessed as cell growth at 10 uM after 48 hrs by sulforhodamine B assay relative to control; settings: OVCAR-8, 48 h, read-out: Activity
[28] = system: RXF 393; experiment: Cytotoxicity against human RXF393 cells assessed as cell growth at 100 uM after 48 hrs by sulforhodamine B assay relative to control; settings: RXF 393, 48 h, read-out: Activity
[29] = system: IGROV-1; experiment: Cytotoxicity against human IGROV1 cells assessed as growth inhibition after 48 hrs by sulforhodamine B assay; settings: IGROV-1, 48 h
[30] = system: OVCAR-4; experiment: Cytotoxicity against human OVCAR4 cells assessed as growth inhibition after 48 hrs by sulforhodamine B assay; settings: OVCAR-4, 48 h
[31] = system: IGROV-1; experiment: Cytotoxicity against human IGROV1 cells assessed as cell growth at 0.1 uM after 48 hrs by sulforhodamine B assay relative to control; settings: IGROV-1, 48 h, read-out: Activity
[32] = system: T47D; experiment: Cytotoxicity against human T47D cells assessed as cell growth at 100 uM after 48 hrs by sulforhodamine B assay relative to control; settings: read-out: Activity
[33] = system: SW-620; experiment: Cytotoxicity against human SW620 cells assessed as cell growth at 10 uM after 48 hrs by sulforhodamine B assay relative to control; settings: SW-620, 48 h, read-out: Activity
[34] = system: NCI/ADR-RES; experiment: Cytotoxicity against human NCI/ADR-RES cells assessed as cell growth at 10 uM after 48 hrs by sulforhodamine B assay relative to control; settings: read-out: Activity
[35] = system: CCRF-CEM; experiment: Cytotoxicity against human CCRF-CEM cells assessed as growth inhibition after 48 hrs by sulforhodamine B assay
[36] = system: MDA-MB-435; experiment: Cytotoxicity against human MDA-MB-435 cells assessed as cell growth at 0.1 uM after 48 hrs by sulforhodamine B assay relative to control; settings: MDA-MB-435, 48 h, read-out: Activity

Compound: COc1cc(C(=O)/C=C/c2cc(-c3ccc4c(c3)OCO4)n[nH]2)cc(OC)c1OC
- growth at 0.01 µM [1]: 97%
- growth at 100 µM [2]: -98%
- growth at 0.1 µM [3]: 98%
- growth at 10 µM [4]: -22%
- growth at 1 µM [5]: 71%
- growth at 1 µM [6]: 89%
- growth at 10 µM [7]: -23%
- growth at 10 µM [8]: -29%
- growth at 1 µM [9]: 47%
- growth at 10 µM [10]: 1%
- growth at 100 µM [11]: -97%
- growth at 0.01 µM [12]: 98%
- growth at 0.1 µM [13]: 98%
- growth at 10 µM [14]: -62%
- GI50 [15]: 1.71 µM
- LC50 [15]: 7.17 µM
- TGI [15]: 3.5 µM
- growth at 0.1 µM [16]: 93%
- GI50 [17]: 2.17 µM
- LC50 (concentration killing 50% of cells) [17]: > 100 µM
- TGI [17]: > 100 µM
- growth at 0.01 µM [18]: 92%
- growth at 100 µM [19]: -95%
- growth at 100 µM [20]: -77%
- GI50 [21]: 3.14 µM
- LC50 [21]: > 100 µM
- TGI [21]: 20.5 µM
- growth at 1 µM [22]: 109%
- growth at 0.1 µM [23]: 94%
- growth at 10 µM [24]: -67%
- growth at 10 µM [25]: -4%
- growth at 0.01 µM [26]: 98%
- growth at 10 µM [27]: -23%
- growth at 100 µM [28]: -92%
- GI50 [29]: 1.99 µM
- LC50 [29]: 23.4 µM
- TGI [29]: 5.72 µM
- GI50 [30]: 0.88 µM
- LC50 [30]: 20.1 µM
- TGI [30]: 4.24 µM
- growth at 0.1 µM [31]: 87%
- growth at 100 µM [32]: -87%
- growth at 10 µM [33]: -57%
- growth at 10 µM [34]: 2%
- GI50 [35]: 2 µM
- LC50 (concentration killing 50% of cells) [35]: > 100 µM
- TGI [35]: 5.74 µM
- growth at 0.1 µM [36]: 95%

Compound: COc1cc(-c2cc(/C=C/C(=O)c3ccc(F)c(F)c3)[nH]n2)cc(OC)c1OC
- growth at 0.01 µM [1]: 100%
- growth at 100 µM [2]: -5%
- growth at 0.1 µM [3]: 98%
- growth at 10 µM [4]: -24%
- growth at 1 µM [5]: 84%
- growth at 1 µM [6]: 88%
- growth at 10 µM [7]: 15%
- growth at 10 µM [8]: 5%
- growth at 1 µM [9]: 67%
- growth at 10 µM [10]: -7%
- growth at 100 µM [11]: -64%
- growth at 0.01 µM [12]: 95%
- growth at 0.1 µM [13]: 96%
- growth at 10 µM [14]: -13%
- LC50 [15]: 43.6 µM
- TGI [15]: 6.25 µM
- growth at 0.1 µM [16]: 87%
- LC50 (concentration killing 50% of cells) [17]: > 100 µM
- TGI [17]: 16.5 µM
- growth at 0.01 µM [18]: 98%
- growth at 100 µM [19]: -11%
- growth at 100 µM [20]: -58%
- LC50 [21]: > 100 µM
- TGI [21]: 36.8 µM
- growth at 1 µM [22]: 85%
- growth at 0.1 µM [23]: 111%
- growth at 10 µM [24]: -9%
- growth at 10 µM [25]: 3%
- growth at 0.01 µM [26]: 98%
- growth at 10 µM [27]: 4%
- growth at 100 µM [28]: -61%
- LC50 [29]: > 100 µM
- TGI [29]: 87 µM
- LC50 [30]: > 100 µM
- TGI [30]: 71.8 µM
- growth at 0.1 µM [31]: 97%
- growth at 100 µM [32]: -11%
- growth at 10 µM [33]: 12%
- growth at 10 µM [34]: 11%
- LC50 (concentration killing 50% of cells) [35]: > 100 µM
- TGI [35]: 47.2 µM
- growth at 0.1 µM [36]: 90%
